# Experimental data from ChEMBL document CHEMBL6121021, “Design and Synthesis of Topoisomerases-Histone Deacetylase Dual Targeted Quinoline-Bridged Hydroxamates as Anticancer Agents” (J Med Chem, 2025).
# The source made the active and inactive calls. The calls are words filed in the database; no cut-off is given here.
# How the values were obtained:
# [1] = biological target: DNA topoisomerase 2-alpha (Homo sapiens, UniProt P11388); experiment: Inhibition of human Topo II-alpha-mediated decatenation of kDNA at 100 uM incubated for 30 mins
# DNA topoisomerase 2-alpha, sequence (P11388 whole entry): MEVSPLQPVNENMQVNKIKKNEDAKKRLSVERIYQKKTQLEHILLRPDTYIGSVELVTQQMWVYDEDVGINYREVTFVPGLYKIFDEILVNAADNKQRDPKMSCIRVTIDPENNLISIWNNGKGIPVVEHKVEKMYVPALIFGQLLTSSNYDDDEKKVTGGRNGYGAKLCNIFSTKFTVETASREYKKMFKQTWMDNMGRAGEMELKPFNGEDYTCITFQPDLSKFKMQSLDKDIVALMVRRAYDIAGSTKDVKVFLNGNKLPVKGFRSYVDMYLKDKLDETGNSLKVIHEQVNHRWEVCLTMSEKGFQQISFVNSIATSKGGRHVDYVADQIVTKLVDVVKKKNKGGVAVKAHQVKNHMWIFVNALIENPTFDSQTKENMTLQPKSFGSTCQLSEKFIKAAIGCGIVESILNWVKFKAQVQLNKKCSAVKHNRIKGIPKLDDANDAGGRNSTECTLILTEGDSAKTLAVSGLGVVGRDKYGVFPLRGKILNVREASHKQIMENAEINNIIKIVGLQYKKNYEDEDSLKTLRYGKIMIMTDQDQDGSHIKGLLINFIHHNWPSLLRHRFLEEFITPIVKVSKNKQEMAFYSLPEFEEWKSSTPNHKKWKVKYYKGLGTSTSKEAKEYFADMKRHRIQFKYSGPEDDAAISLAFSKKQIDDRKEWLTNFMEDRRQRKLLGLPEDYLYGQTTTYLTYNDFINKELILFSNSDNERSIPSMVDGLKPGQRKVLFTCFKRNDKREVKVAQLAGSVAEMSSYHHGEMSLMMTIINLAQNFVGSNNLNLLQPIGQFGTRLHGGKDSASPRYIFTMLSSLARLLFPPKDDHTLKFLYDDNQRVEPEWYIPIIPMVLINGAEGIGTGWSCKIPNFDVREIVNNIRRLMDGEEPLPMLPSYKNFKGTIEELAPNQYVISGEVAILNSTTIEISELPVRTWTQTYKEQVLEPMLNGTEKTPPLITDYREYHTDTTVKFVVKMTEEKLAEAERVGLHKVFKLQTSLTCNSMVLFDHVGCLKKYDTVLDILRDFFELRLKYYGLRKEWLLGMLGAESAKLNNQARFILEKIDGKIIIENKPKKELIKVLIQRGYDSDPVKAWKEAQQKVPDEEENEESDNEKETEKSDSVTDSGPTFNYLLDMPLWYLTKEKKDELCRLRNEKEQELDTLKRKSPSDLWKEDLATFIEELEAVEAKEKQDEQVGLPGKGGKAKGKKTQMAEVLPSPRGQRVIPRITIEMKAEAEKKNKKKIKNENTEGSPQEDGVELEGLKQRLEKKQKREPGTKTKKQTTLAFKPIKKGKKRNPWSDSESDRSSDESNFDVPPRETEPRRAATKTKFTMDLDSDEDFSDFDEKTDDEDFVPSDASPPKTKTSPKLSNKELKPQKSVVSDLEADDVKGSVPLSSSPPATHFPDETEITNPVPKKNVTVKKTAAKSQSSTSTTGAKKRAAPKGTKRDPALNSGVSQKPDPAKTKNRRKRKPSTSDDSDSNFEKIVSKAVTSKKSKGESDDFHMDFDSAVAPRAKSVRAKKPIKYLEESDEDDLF
# [2] = biological target: T1, DNA topoisomerase 1 (Homo sapiens) (UniProt P11387); experiment: Inhibition of human Topo I-mediated relaxation of supercoiled DNA preincubated for 30 mins followed by proteinase K addition measured after 30 mins by gel electrophoresis; details: time 60.0 min
# T1 sequence (whole entry): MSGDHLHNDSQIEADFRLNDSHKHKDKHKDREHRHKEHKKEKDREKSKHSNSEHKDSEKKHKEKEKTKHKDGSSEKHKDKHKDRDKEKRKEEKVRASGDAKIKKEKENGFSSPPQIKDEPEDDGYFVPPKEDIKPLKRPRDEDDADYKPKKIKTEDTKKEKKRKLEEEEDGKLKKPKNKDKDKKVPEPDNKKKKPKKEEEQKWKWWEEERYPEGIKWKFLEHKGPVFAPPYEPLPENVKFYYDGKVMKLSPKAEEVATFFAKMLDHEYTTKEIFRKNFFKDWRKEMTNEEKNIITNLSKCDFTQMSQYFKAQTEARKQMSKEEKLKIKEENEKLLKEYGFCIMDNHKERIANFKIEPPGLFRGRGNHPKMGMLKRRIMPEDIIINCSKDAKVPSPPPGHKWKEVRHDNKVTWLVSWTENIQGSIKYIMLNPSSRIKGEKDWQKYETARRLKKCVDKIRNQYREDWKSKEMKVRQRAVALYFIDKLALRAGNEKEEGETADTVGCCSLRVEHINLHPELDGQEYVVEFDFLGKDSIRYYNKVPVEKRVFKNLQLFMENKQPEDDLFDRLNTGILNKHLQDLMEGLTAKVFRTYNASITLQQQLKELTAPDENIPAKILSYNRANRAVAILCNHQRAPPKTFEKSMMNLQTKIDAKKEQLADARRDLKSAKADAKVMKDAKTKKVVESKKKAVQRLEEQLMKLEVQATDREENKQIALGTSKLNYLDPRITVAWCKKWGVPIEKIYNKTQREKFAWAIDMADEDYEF
# Supercoiled DNA = experiment: Binding affinity to supercoiled DNA (unknown origin) assessed as DNA intercalation measured after 30 mins by gel electrophoresis; type: nucleic-acid assay
# Histone deacetylase 8 = biological target: T2, Histone deacetylase 8 (Homo sapiens, UniProt Q9BY41); experiment: Inhibition of HDAC8 (unknown origin) by fluorometric assay
# T2 sequence (Q9BY41 whole entry): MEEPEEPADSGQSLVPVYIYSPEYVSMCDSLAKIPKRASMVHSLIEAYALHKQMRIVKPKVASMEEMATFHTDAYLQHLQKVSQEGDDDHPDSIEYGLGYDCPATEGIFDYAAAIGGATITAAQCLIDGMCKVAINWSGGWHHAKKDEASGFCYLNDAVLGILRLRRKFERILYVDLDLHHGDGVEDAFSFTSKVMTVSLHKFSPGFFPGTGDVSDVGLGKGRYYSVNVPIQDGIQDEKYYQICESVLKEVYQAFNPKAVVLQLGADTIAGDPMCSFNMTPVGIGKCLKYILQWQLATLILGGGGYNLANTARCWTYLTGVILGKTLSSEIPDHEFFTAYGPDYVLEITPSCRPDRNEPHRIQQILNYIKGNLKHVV
# NCI-H1299 = experiment: cells; type: functional, cell-based; details: Homo sapiens, NCI-H1299, 48 h
# MDA-MB-231 [3] = experiment: cells; type: functional, cell-based; details: Homo sapiens, MDA-MB-231, 48 h
# MCF7 = experiment: cells; type: functional, cell-based; details: Homo sapiens, MCF7, 48 h
# HT-29 = experiment: cells; type: functional, cell-based; details: Homo sapiens, HT-29, 48 h
# A549 [4] = experiment: Anti-cancer activity against human A549 3D cell culture model assessed as inhibition of 3D culture initiation at sub- IC50 incubated for 21 days with replacement of medium containing compound on every seventh day; type: functional, cell-based; details: time 21.0 day
# A549 [5] = experiment: Anti-cancer activity against human A549 3D cell culture model at sub- IC50 incubated for 17 days with replacement of medium containing compound on every third day; type: functional, cell-based; details: time 17.0 day
# A549 [6] = experiment: Induction of ROS generation in human A549 cells incubated for 48 hrs by DCFH-DA staining based analysis; type: functional, cell-based
# A549 [7] = experiment: Induction of ROS generation in human A549 cells incubated for 48 hrs by Cell Rox red staining based flow cytometry; type: functional
# A549 [8] = experiment: Effect on mitochondrial membrane permeability in human A549 cells assessed as decrease in red to green fluorescence ratio at sub-IC50 incubated for 48 hrs by JC-1 staining based analysis; type: functional, cell-based
# MDA-MB-231 [9] = experiment: Anti-cancer activity against human MDA-MB-231 cells assessed as increase in let7a mRNA level by qPCR analysis; type: functional, cell-based
Compound,inhibition [1],inhibition [2],Activity (Supercoiled DNA),IC50 (Histone deacetylase 8) [µM],IC50 (NCI-H1299) [µM],IC50 (MDA-MB-231 [3]) [µM],IC50 (MCF7) [µM],IC50 (HT-29) [µM],inhibition (A549 [4]),Activity (A549 [5]),Activity (A549 [6]),Activity (A549 [7]),Activity (A549 [8]),Activity (MDA-MB-231 [9])
COc1ccc(-c2ccc3cc(OCCCCCC(=O)NO)ccc3n2)cc1,Active; Observed As More Active Than Etoposide,Active,inactive,> 0.5,1.68,0.879,1.98,5.76,Active,Active; Exhibited Commendable Decrease In Mass Of 3D Sphere,Active,Active,Active; Result Signifies That Cell Death Induced Via Mitochondrial-Dependent Pathways,Active
COc1ccc(-c2ccc3ccc(OCCCCCCC(=O)NO)cc3n2)cc1I,Active; Observed As More Active Than Etoposide,Active,inactive,> 0.5,1.63,1.55,3.02,1.86,Active,Active; Exhibited Potent Effect,Active,Active,Not active; Result Signifies That Cell Death Induced Via Mitochondrial-Independent Pathways,Active
